Assay results reported in US6375979B2 (Somerset Pharmaceuticals, Inc., priority 1995, dated 2002).
“And” between values parts separate entries of the source, which are not always exact repeats. Equal values may be shown once. Read-outs that look alike come from different tables or passages of the source.

Experiments:
MAO-A [1] = molecular target: T1, MAO-A (Rattus norvegicus, UniProt P21396)
T1 sequence (P21396 1-526): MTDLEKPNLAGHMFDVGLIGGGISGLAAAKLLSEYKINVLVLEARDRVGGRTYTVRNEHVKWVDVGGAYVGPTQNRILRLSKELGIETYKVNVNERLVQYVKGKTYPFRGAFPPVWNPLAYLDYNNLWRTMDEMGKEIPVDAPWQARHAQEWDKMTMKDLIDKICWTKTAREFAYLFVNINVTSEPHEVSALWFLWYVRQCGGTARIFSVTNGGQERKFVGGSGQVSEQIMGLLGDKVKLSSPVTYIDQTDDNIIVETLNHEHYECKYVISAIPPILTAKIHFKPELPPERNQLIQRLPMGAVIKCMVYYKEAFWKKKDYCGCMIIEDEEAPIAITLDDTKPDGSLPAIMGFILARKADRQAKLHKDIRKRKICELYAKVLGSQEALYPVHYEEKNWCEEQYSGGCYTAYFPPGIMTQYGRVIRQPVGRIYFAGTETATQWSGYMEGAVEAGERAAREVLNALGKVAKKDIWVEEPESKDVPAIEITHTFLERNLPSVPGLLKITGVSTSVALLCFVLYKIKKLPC

[2] = molecular target: T2, dopamine re-uptake system (Rattus norvegicus, UniProt P23977); assay: Inhibition of dopamine re-uptake in rat neostriatal synaptosome preparation; assay type: biochemical
T2 construct: (synaptosome preparation) was obtained form fresh rat neostriatal brain tissue; from tissue; host or cells: rat neostriatum, synaptosome preparation
Protocol: An in vitro nerve terminal preparation (synaptosome preparation) was prepared using fresh rat neostriatal tissue.
FIG. 19: Determination of IC50 Values for Inhibition of Dopamine Re-Uptake.
An in vitro nerve-terminal preparation (synaptosome preparation) was obtained form fresh rat neostriatal brain tissue. Transport by dopamine nerve-terminals was estimated by measuring the uptake of tritiated dopamine.

[3] = test system: cultured rat mesencephalic cells exposed to NMDA; assay: NMDA model of cell death: TH immunochemistry; conditions: 100 μM NMDA exposure
Protocol: Rat mesencephalic cell cultures were exposed to 100 μM NMDA and incubated as described above in connection with FIG. 16.

MAO-B [4] = molecular target: T3, MAO-B (Cavia porcellus, UniProt P58028); assay: In vivo brain MAO-B inhibition in guinea pig hippocampus after 5 days of administration
T3 construct: by human platelets and/or guinea pig hippocampal homogenates; from tissue; host or cells: guinea pig hippocampus homogenate
T3 sequence (P58028 1-520): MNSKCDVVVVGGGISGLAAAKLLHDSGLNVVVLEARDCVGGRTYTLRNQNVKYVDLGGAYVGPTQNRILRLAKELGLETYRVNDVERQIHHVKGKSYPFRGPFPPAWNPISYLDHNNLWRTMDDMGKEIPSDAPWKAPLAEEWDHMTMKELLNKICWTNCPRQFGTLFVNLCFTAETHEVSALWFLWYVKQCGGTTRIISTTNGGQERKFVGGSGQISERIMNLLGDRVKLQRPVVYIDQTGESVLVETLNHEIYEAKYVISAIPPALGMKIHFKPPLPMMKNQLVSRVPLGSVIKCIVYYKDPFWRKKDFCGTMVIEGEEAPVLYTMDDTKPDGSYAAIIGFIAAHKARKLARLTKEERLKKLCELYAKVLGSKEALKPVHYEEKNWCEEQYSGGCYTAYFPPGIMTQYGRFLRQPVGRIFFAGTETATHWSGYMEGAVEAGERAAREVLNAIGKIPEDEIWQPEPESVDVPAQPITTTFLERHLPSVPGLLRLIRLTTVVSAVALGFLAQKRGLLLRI
Protocol: FIG. 20: In Vivo MAO-B Inhibition in Guinea Pig Hippocampus. […] Animals were then sacrificed and the MAO-B activity in the hippocampus portion of the brain was determined. […] The plots were used to estimate the ID50 dosage for each agent.
Each enantiomer of DMS was administered in vivo by subcutaneous injection once a day for five consecutive days, and inhibition of brain MAO-B activity was then determined.

MAO-A [5] = molecular target: T4, MAO-A (Cavia porcellus, UniProt H0UVA2); assay: In vivo MAO-A inhibition in guinea pig cortex (hippocampus) after 5 s.c. treatments; conditions: 10 mg/kg, highest dose tested
T4 sequence (H0UVA2 1-461): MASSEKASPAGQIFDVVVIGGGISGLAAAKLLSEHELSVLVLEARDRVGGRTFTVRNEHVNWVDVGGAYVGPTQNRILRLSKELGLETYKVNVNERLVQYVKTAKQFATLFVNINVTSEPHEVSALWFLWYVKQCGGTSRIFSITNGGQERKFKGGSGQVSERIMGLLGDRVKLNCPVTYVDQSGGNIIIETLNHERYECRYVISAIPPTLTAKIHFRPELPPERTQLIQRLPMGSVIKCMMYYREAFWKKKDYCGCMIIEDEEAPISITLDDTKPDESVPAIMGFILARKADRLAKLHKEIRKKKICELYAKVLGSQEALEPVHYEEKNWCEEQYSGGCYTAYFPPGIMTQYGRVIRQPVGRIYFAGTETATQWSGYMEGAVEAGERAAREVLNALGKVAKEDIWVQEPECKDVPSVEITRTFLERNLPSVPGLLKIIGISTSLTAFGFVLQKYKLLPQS

MAO-B [6] = molecular target: T3, MAO-B; assay: MAO-B inhibition in guinea pig hippocampal homogenates in vitro; assay type: biochemical; conditions: read-out: MAO-B % Inhibition x ± SEM
Text: Human platelet MAO is comprised exclusively of the type-B isoform of the enzyme. […] The present study also examined the two enantiomers of DMS for inhibitory activity with respect to the MAO-A and MAO-B in guinea pig hippocampal tissue. Guinea pig brain tissue is an excellent animal model for studying brain dopamine metabolism, the enzyme kinetics of the multiple forms of MAO and the inhibitory properties of novel agents that interact with these enzymes. The multiple forms of MAO in this animal species show similar kinetic properties to those found in human brain tissue. Finally, the test agents were administered to guinea pigs and the extent to which they might act as inhibitors of brain MAO in vivo was assessed.
In vitro: The test system utilized the in vitro conversion of specific substrates of MAO-A (^14C-serotonin) and MAO-B (^14C-phenylethylamine) by human platelets and/or guinea pig hippocampal homogenates. […] A percent inhibition was calculated from these values.

T2 sequence (P23977 whole entry): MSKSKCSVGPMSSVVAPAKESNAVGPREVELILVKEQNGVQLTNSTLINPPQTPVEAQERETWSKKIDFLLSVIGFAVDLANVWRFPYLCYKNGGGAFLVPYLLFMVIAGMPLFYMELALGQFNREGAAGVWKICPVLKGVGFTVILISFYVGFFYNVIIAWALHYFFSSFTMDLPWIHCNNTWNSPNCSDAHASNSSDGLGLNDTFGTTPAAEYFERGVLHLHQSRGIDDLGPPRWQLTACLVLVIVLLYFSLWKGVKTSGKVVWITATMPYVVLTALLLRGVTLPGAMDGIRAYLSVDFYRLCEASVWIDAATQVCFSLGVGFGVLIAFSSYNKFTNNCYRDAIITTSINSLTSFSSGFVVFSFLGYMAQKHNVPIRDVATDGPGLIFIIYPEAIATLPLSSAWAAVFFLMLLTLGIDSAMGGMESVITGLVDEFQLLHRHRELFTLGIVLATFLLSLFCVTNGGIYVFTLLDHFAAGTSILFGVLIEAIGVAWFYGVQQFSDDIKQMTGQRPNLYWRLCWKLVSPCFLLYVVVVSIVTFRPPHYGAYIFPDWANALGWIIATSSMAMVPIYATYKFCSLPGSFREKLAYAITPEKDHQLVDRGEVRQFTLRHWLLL

Compound: desmethylselegiline [R(−)DMS]
- inhibition (MAO-A [1]; 0.3 µM): 0%
- inhibition (MAO-A [1]; 1 μM): 0.7%
- inhibition (MAO-A [1]; 3 µM): 4.1%
- inhibition (MAO-A [1]; 10 μM): 11.8%
- inhibition (MAO-A [1]; 100 μM): 56.1%
- 3H-Dopamine uptake, % Reduction x ± SEM ([2]; 1 μM): 10.7 ± 2.8%
- 3H-Dopamine uptake, % Reduction x ± SEM ([2]; 10 μM): 20.1 ± 3.1%
- 3H-Dopamine uptake, % Reduction x ± SEM ([2]; 100 μM): 11.5 ± 1.0%
- 3H-Dopamine uptake, % Reduction x ± SEM ([2]; 100 μM (last row of each agent)): 51.3 ± 2.6%
- TH Immunochemistry, % control, Mean ([3]; 0.5 μM): 97.3%
- TH Immunochemistry, % control, individual cultures ([3]; 0.5 μM): 100.9% and 79.6% and 111.5%
- TH Immunochemistry, cells/cm^2, Mean ([3]; 0.5 μM): 91.67 cells/cm^2
- TH Immunochemistry, cells/cm^2, individual cultures ([3]; 0.5 μM): 95.0 cells/cm^2 and 75.0 cells/cm^2 and 105.0 cells/cm^2
- TH Immunochemistry, % control, Mean ([3]; 5.0 μM): 136.1%
- TH Immunochemistry, % control, individual cultures ([3]; 5.0 μM): 151.3% and 130.1% and 138.1% and 124.8%
- TH Immunochemistry, cells/cm^2, Mean ([3]; 5.0 μM): 128.13 cells/cm^2
- TH Immunochemistry, cells/cm^2, individual cultures ([3]; 5.0 μM): 142.5 cells/cm^2 and 122.5 cells/cm^2 and 130.0 cells/cm^2 and 117.5 cells/cm^2
- TH Immunochemistry, % control, Mean ([3]; 50 μM): 165.9%
- TH Immunochemistry, % control, individual cultures ([3]; 50 μM): 252.2% and 180.5% and 108.8% and 122.1%
- TH Immunochemistry, cells/cm^2, Mean ([3]; 50 μM): 156.25 cells/cm^2
- TH Immunochemistry, cells/cm^2, individual cultures ([3]; 50 μM): 237.5 cells/cm^2 and 170.0 cells/cm^2 and 102.5 cells/cm^2 and 115.0 cells/cm^2

Compound: C#CCN[C@@H](C)Cc1ccccc1 (single isomer, unassigned) [S(+)DMS, ent-desmethylselegiline]
- times less potent than selegiline, preliminary studies (MAO-B [4]; brain MAO-B in vivo): about 10 times
- times less potent than selegiline as an inhibitor of MAO-B, more recent studies (MAO-B [4]; brain MAO-B in vivo, larger group of animals): about 50 times
- ED50 (MAO-B [4]; guinea pig, sc, read-out: ID50 for MAO-B in Guinea Pig Hippocampal Cortex, once a day for 5 days, subcutaneous, larger group of animals, FIG. 20): ~0.5 mg/kg
- times more potent than either selegiline or R(−)DMS at inhibiting dopamine re-uptake [2]: 4-5 times
- 3H-Dopamine uptake, % Reduction x ± SEM ([2]; 1 μM): 24.1 ± 11.7%
- 3H-Dopamine uptake, % Reduction x ± SEM ([2]; 10 μM): 47.0 ± 3.1%
- 3H-Dopamine uptake, % Reduction x ± SEM ([2]; 100 μM): 15.3 ± 7.7%
- inhibition of MAO-A activity in vivo (MAO-A [5]): did not cause any observable inhibition
- inhibition at 1 µM (MAO-B [6]): 44.4 ± 6.4%
